Earlier results as cited in patent US20100216719A1, “Soluble Fiber Combinations for Weight Control and Improving Parameters of Cardiovascular Health” (MANNATECH, INCORPORATED, priority 2005, published 2010).

Assays:
[1] = subjects supplemented with 3.8 grams per day for 28 days
[2] = test animals

Substance | reduction in ApoB [1] | reduction in LDL cholesterol [1] | reduction in fasting glucose levels [1] | reduction in plasma cholesterol [1] | reduction in total cholesterol/HDL cholesterol ratio [1] | effect on cholesterol [2] | effect on triglycerides [2]
Konjac glucomannan | 12.9% | 20.7% | 23.2% | 11.1% | 15.6% | – | –
xanthan gum | – | – | – | – | – | significantly reduced | significantly reduced
guar gum | – | – | – | – | – | decreased only cholesterol | –
